Assay results published in ChEMBL document CHEMBL1201862, “PubChem BioAssay data set” (2004).
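Tested at 5 concentrations; 48 h exposure; 96-well plates; endpoints linearly interpolated, else capped at highest concentration. Abbreviation: GI50, concentration required for 50% inhibition of growth.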 Activity calls are given as the source filed them. Rule as the data show it: active = GI50 up to about 1.1 µM and inactive = higher.

Columns and labels:
Experiment in all cases: NCI tumour cell line growth inhibition, 48 h
PC-3 = tested on: PC-3
MOLT-4 = tested on: MOLT-4
HCT-116 = tested on: HCT-116
BT-549 = tested on: BT-549
CAKI-1 = tested on: CAKI-1
MDA-MB-435 = tested on: MDA-MB-435
SNB-75 = tested on: SNB-75
U-251 = tested on: U-251
UACC-62 = tested on: UACC-62
OVCAR-4 = tested on: OVCAR-4
EKVX = tested on: EKVX
SF-539 = tested on: SF-539
UO-31 = tested on: UO-31
HOP-62 = tested on: HOP-62
Malme-3M = tested on: Malme-3M
SK-OV-3 = tested on: SK-OV-3
OVCAR-8 = tested on: OVCAR-8
RXF 393 = tested on: RXF 393
HOP-92 = tested on: HOP-92
HT-29 = tested on: HT-29
OVCAR-5 = tested on: OVCAR-5
SNB-19 = tested on: SNB-19
TK-10 = tested on: TK-10
A549 = tested on: A549
SF-295 = tested on: SF-295
LOX IMVI = tested on: LOX IMVI
COLO 205 = tested on: COLO 205
SK-MEL-28 = tested on: SK-MEL-28
NCI-H226 = tested on: NCI-H226
HCT-15 = tested on: HCT-15
HL-60 = tested on: HL-60
MCF7 = tested on: MCF7
ACHN = tested on: ACHN
Hs-578T = tested on: Hs-578T
786-0 = tested on: 786-0
DU-145 = tested on: DU-145
SW-620 = tested on: SW-620
M14 = tested on: M14
KM12 = tested on: KM12
SF-268 = tested on: SF-268
MDA-N = tested on: MDA-N
NCI-H23 = tested on: NCI-H23
NCI/ADR-RES = tested on: NCI/ADR-RES
OVCAR-3 = tested on: OVCAR-3
NCI-H522 = tested on: NCI-H522
SK-MEL-2 = tested on: SK-MEL-2
IGROV-1 = tested on: IGROV-1
SN12C = tested on: SN12C
SK-MEL-5 = tested on: SK-MEL-5
A498 = tested on: A498
CCRF-CEM = tested on: CCRF-CEM
NCI-H460 = tested on: NCI-H460
UACC-257 = tested on: UACC-257
T47D = tested on: T47D
SR = tested on: SR
K562 = tested on: K562
HCC 2998 = tested on: HCC 2998
RPMI-8226 = tested on: RPMI-8226
MDA-MB-231 = tested on: MDA-MB-231

COc1cc(Nc2cnc3cc(F)c(F)cc3n2)cc(OC)c1OC
GI50 (PC-3): > 100 µM (inactive)
GI50 (MOLT-4): > 100 µM (inactive)
GI50 (HCT-116): > 100 µM (inactive)
GI50 (BT-549): > 100 µM (inactive)
GI50 (CAKI-1): > 100 µM (inactive)
GI50 (MDA-MB-435): > 100 µM (inactive)
GI50 (SNB-75): > 100 µM (inactive)
GI50 (U-251): > 100 µM (inactive)
GI50 (UACC-62): > 100 µM (inactive)
GI50 (OVCAR-4): > 100 µM (inactive)
GI50 (EKVX): > 100 µM (inactive)
GI50 (SF-539): > 100 µM (inactive)
GI50 (UO-31): > 100 µM (inactive)
GI50 (HOP-62): 91.8 µM (inactive)
GI50 (Malme-3M): > 100 µM (inactive)
GI50 (SK-OV-3): > 100 µM (inactive)
GI50 (OVCAR-8): > 100 µM (inactive)
GI50 (RXF 393): 36.8 µM (inactive)
GI50 (HOP-92): > 100 µM (inactive)
GI50 (HT-29): > 100 µM (inactive)
GI50 (OVCAR-5): > 100 µM (inactive)
GI50 (SNB-19): > 100 µM (inactive)
GI50 (TK-10): > 100 µM (inactive)
GI50 (A549): > 100 µM (inactive)
GI50 (SF-295): > 100 µM (inactive)
GI50 (LOX IMVI): 40 µM (inactive)
GI50 (COLO 205): > 100 µM (inactive)
GI50 (SK-MEL-28): > 100 µM (inactive)
GI50 (NCI-H226): > 100 µM (inactive)
GI50 (HCT-15): > 100 µM
GI50 (HL-60): 24.9 µM (inactive)
GI50 (MCF7): > 100 µM (inactive)
GI50 (ACHN): > 100 µM (inactive)
GI50 (Hs-578T): 63.2 µM (inactive)
GI50 (786-0): > 100 µM (inactive)
GI50 (DU-145): > 100 µM (inactive)
GI50 (SW-620): > 100 µM (inactive)
GI50 (M14): > 100 µM (inactive)
GI50 (KM12): 69.3 µM (inactive)
GI50 (SF-268): > 100 µM (inactive)
GI50 (MDA-N): > 100 µM (inactive)
GI50 (NCI-H23): 73.6 µM (inactive)
GI50 (NCI/ADR-RES): > 100 µM (inactive)
GI50 (OVCAR-3): > 100 µM (inactive)
GI50 (NCI-H522): 67.1 µM (inactive)
GI50 (SK-MEL-2): 84.3 µM (inactive)
GI50 (IGROV-1): > 100 µM (inactive)
GI50 (SN12C): > 100 µM (inactive)
GI50 (SK-MEL-5): > 100 µM (inactive)
GI50 (A498): > 100 µM (inactive)
GI50 (CCRF-CEM): > 100 µM (inactive)
GI50 (NCI-H460): > 100 µM (inactive)
GI50 (UACC-257): > 100 µM (inactive)
GI50 (T47D): > 100 µM (inactive)

CCOC(=O)c1c(N2CCCC2)ncn(-c2ccccc2)c1=S
GI50 (SR): > 100 µM (inactive)
GI50 (K562): > 100 µM (inactive)
GI50 (PC-3): > 100 µM (inactive)
GI50 (MOLT-4): > 100 µM (inactive)
GI50 (HCT-116): > 100 µM (inactive)
GI50 (BT-549): > 100 µM (inactive)
GI50 (MDA-MB-435): > 100 µM (inactive)
GI50 (SNB-75): > 100 µM (inactive)
GI50 (U-251): > 100 µM (inactive)
GI50 (UACC-62): > 100 µM (inactive)
GI50 (OVCAR-4): > 100 µM (inactive)
GI50 (EKVX): > 100 µM (inactive)
GI50 (SF-539): > 100 µM (inactive)
GI50 (UO-31): > 100 µM (inactive)
GI50 (HOP-62): > 100 µM (inactive)
GI50 (Malme-3M): 57.5 µM (inactive)
GI50 (HCC 2998): > 100 µM (inactive)
GI50 (SK-OV-3): > 100 µM (inactive)
GI50 (OVCAR-8): > 100 µM (inactive)
GI50 (RXF 393): > 100 µM (inactive)
GI50 (HOP-92): > 100 µM (inactive)
GI50 (HT-29): > 100 µM (inactive)
GI50 (OVCAR-5): > 100 µM (inactive)
GI50 (SNB-19): > 100 µM (inactive)
GI50 (TK-10): > 100 µM (inactive)
GI50 (A549): > 100 µM (inactive)
GI50 (SF-295): > 100 µM (inactive)
GI50 (LOX IMVI): > 100 µM (inactive)
GI50 (COLO 205): > 100 µM (inactive)
GI50 (SK-MEL-28): > 100 µM (inactive)
GI50 (NCI-H226): > 100 µM (inactive)
GI50 (HCT-15): > 100 µM
GI50 (HL-60): > 100 µM (inactive)
GI50 (ACHN): > 100 µM (inactive)
GI50 (Hs-578T): > 100 µM (inactive)
GI50 (786-0): > 100 µM (inactive)
GI50 (DU-145): > 100 µM (inactive)
GI50 (SW-620): > 100 µM (inactive)
GI50 (M14): > 100 µM (inactive)
GI50 (KM12): > 100 µM (inactive)
GI50 (SF-268): 28.4 µM (inactive)
GI50 (MDA-N): > 100 µM (inactive)
GI50 (NCI/ADR-RES): > 100 µM (inactive)
GI50 (RPMI-8226): > 100 µM (inactive)
GI50 (OVCAR-3): 49.4 µM (inactive)
GI50 (NCI-H522): > 100 µM (inactive)
GI50 (SK-MEL-2): > 100 µM (inactive)
GI50 (IGROV-1): > 100 µM (inactive)
GI50 (SN12C): > 100 µM (inactive)
GI50 (SK-MEL-5): > 100 µM (inactive)
GI50 (A498): > 100 µM (inactive)
GI50 (CCRF-CEM): > 100 µM (inactive)
GI50 (NCI-H460): > 100 µM (inactive)
GI50 (UACC-257): > 100 µM (inactive)
GI50 (T47D): > 100 µM (inactive)

Cc1ccc(/N=N/c2c(O)c(C(=O)O)cc3ccccc23)c(S(=O)(=O)O)c1
GI50 (SR): > 100 µM (inactive)
GI50 (K562): > 100 µM (inactive)
GI50 (PC-3): > 100 µM (inactive)
GI50 (MOLT-4): > 100 µM (inactive)
GI50 (HCT-116): > 100 µM (inactive)
GI50 (BT-549): > 100 µM (inactive)
GI50 (CAKI-1): > 100 µM (inactive)
GI50 (MDA-MB-435): > 100 µM (inactive)
GI50 (SNB-75): > 100 µM (inactive)
GI50 (U-251): > 100 µM (inactive)
GI50 (UACC-62): > 100 µM (inactive)
GI50 (OVCAR-4): > 100 µM (inactive)
GI50 (EKVX): > 100 µM (inactive)
GI50 (UO-31): > 100 µM (inactive)
GI50 (HOP-62): > 100 µM (inactive)
GI50 (Malme-3M): > 100 µM (inactive)
GI50 (SK-OV-3): > 100 µM (inactive)
GI50 (OVCAR-8): > 100 µM (inactive)
GI50 (RXF 393): > 100 µM (inactive)
GI50 (HOP-92): 97.1 µM (inactive)
GI50 (HT-29): > 100 µM (inactive)
GI50 (OVCAR-5): > 100 µM (inactive)
GI50 (SNB-19): > 100 µM (inactive)
GI50 (TK-10): > 100 µM (inactive)
GI50 (A549): > 100 µM (inactive)
GI50 (SF-295): > 100 µM (inactive)
GI50 (LOX IMVI): > 100 µM (inactive)
GI50 (COLO 205): > 100 µM (inactive)
GI50 (SK-MEL-28): > 100 µM (inactive)
GI50 (NCI-H226): > 100 µM (inactive)
GI50 (HCT-15): > 100 µM
GI50 (ACHN): > 100 µM (inactive)
GI50 (MDA-MB-231): > 100 µM (inactive)
GI50 (Hs-578T): > 100 µM (inactive)
GI50 (786-0): > 100 µM (inactive)
GI50 (DU-145): > 100 µM (inactive)
GI50 (SW-620): > 100 µM (inactive)
GI50 (M14): > 100 µM (inactive)
GI50 (KM12): > 100 µM (inactive)
GI50 (SF-268): > 100 µM (inactive)
GI50 (MDA-N): > 100 µM (inactive)
GI50 (NCI-H23): > 100 µM (inactive)
GI50 (NCI/ADR-RES): > 100 µM (inactive)
GI50 (RPMI-8226): > 100 µM (inactive)
GI50 (OVCAR-3): > 100 µM (inactive)
GI50 (NCI-H522): > 100 µM (inactive)
GI50 (SK-MEL-2): > 100 µM (inactive)
GI50 (IGROV-1): > 100 µM (inactive)
GI50 (SN12C): > 100 µM (inactive)
GI50 (SK-MEL-5): > 100 µM (inactive)
GI50 (A498): > 100 µM (inactive)
GI50 (CCRF-CEM): > 100 µM (inactive)
GI50 (UACC-257): > 100 µM (inactive)
GI50 (T47D): > 100 µM (inactive)
